Drawing on PubChem BioAssay (NCI), this text covers TGI and GI50 for ten molecules.

Test systems include RXF 393 renal; UACC-257 melanoma; MDA-MB-435; SK-OV-3 ovarian; DU-145 prostate; NCI-H23 lung; SK-MEL-28 melanoma; ACHN renal.
Holding throughout (test): DTP human tumour cell line panel, 48 h

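1) Cells in 96-well plates. 2) Compound, 48 h, 5 concentrations. 3) Linear interpolation between surrounding doses. 4) Unreached endpoint = highest concentration. Abbreviation: GI50, concentration required for 50% inhibition of growth. At the TGI there is no net growth.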

With `O=[N+]([O-])c1oc2ccc3ccccc3c2c1CCO`, the concentration for total growth inhibition (TGI) (usually the concentration giving total growth inhibition) was 3.71 µM with RXF 393 renal; 4.2 µM in the assay with UACC-257 melanoma; 3.16 µM with MDA-MB-435; 5.1 µM with SK-OV-3 ovarian; above 36.5 µM with DU-145 prostate; 17 µM in the assay on NCI-H23 lung. Moreover, the TGI turned out to be 3.27 µM in the assay on SK-MEL-28 melanoma and 3.68 µM in the assay with ACHN renal.

For the molecule `Cc1ccc(OCCOCCOCCOCCOCCOc2ccc(C)n(O)c2=S)c(=S)n1O`, the GI50 (commonly the concentration at which growth is held to half of that of the control) in the assay with RXF 393 renal was 0.327 µM; in the assay on UACC-257 melanoma, 0.0425 µM; in the assay with MDA-MB-435 it was 0.186 µM; with SK-OV-3 ovarian it was 0.0583 µM; in the assay on DU-145 prostate, 0.124 µM; in the assay on NCI-H23 lung, 0.08 µM. Also, the GI50 is 0.23 µM in the assay with SK-MEL-28 melanoma and 0.0494 µM in the assay with ACHN renal. For the same molecule, the TGI was 17.1 µM in the assay on RXF 393 renal; above 66.4 µM in the assay with UACC-257 melanoma; 52.6 µM in the assay with MDA-MB-435; above 48 µM in the assay on SK-OV-3 ovarian; above 100 µM in the assay on DU-145 prostate; above 100 µM in the assay on NCI-H23 lung. Besides, the concentration for total growth inhibition (TGI) is above 48.7 µM with SK-MEL-28 melanoma and above 87.2 µM in the assay on ACHN renal.

For the molecule `CC1(C)CCC(C)(C)c2cc(NC(=O)c3ccc(C(=O)O)cc3)ccc21`, the TGI in the assay with RXF 393 renal is above 79.9 µM; in the assay on UACC-257 melanoma it was above 100 µM; in the assay with MDA-MB-435, above 77.8 µM; in the assay with SK-OV-3 ovarian, above 100 µM; in the assay on DU-145 prostate it was above 100 µM; in the assay on NCI-H23 lung it was 53.9 µM. For the same molecule, the TGI is above 82.2 µM in the assay with SK-MEL-28 melanoma and above 100 µM with ACHN renal.

Take `COC(=O)c1oc2c(C(=O)/C=C/c3ccc(OC)cc3)c(OCCN3CCOCC3)ccc2c1C`: the GI50 in the assay on RXF 393 renal was 0.0487 µM; in the assay on UACC-257 melanoma it was 1.99 µM; in the assay with MDA-MB-435 it was 2.37 µM; in the assay on SK-OV-3 ovarian, 2.92 µM; with DU-145 prostate, 1.75 µM; with NCI-H23 lung it was 1.91 µM. Moreover, the values for the GI50 in the assay on SK-MEL-28 melanoma and with ACHN renal were 2.33 µM and 1.73 µM, respectively. In addition, the TGI came out at 0.493 µM in the assay with RXF 393 renal; 4.25 µM in the assay on UACC-257 melanoma; 7.34 µM in the assay with MDA-MB-435; 8.61 µM in the assay on SK-OV-3 ovarian; 4.24 µM in the assay on DU-145 prostate; 5.46 µM in the assay with NCI-H23 lung. For the same molecule, the results for the TGI in the assay on SK-MEL-28 melanoma and in the assay with ACHN renal were 5.19 µM and 3.62 µM, respectively.

For the molecule `Oc1ccccc1/C=N\NC(=S)N/N=C/c1ccccc1O`, the GI50 with RXF 393 renal is 5.72 µM; in the assay on UACC-257 melanoma, 2.6 µM; in the assay with MDA-MB-435 it was 1.97 µM; in the assay with SK-OV-3 ovarian, 4.28 µM; with DU-145 prostate, 2.95 µM; in the assay on NCI-H23 lung, 3.91 µM. The GI50 was 4.14 µM in the assay on SK-MEL-28 melanoma and 1.77 µM with ACHN renal. Further, the TGI in the assay with RXF 393 renal was above 100 µM; in the assay with UACC-257 melanoma it was 16.6 µM; with MDA-MB-435, 25.3 µM; in the assay on SK-OV-3 ovarian it was above 100 µM; in the assay on DU-145 prostate, 61 µM; in the assay with NCI-H23 lung it was above 100 µM. Besides, the TGI with SK-MEL-28 melanoma and in the assay with ACHN renal was above 100 µM throughout.

Regarding `COc1ccc(NC(=O)c2ccc(NC3=C(Cl)C(=O)N(Cc4ccccc4)C3=O)cc2)c(OC)c1`, the GI50 was 50.2 µM in the assay on RXF 393 renal; 47 µM in the assay with UACC-257 melanoma; 16.7 µM in the assay with MDA-MB-435; above 100 µM with SK-OV-3 ovarian; 28.8 µM in the assay on DU-145 prostate; 14.3 µM in the assay with NCI-H23 lung. In addition, the GI50 was 83.3 µM in the assay with SK-MEL-28 melanoma and 36 µM in the assay on ACHN renal. Further, the TGI is above 100 µM in the assay with RXF 393 renal; above 100 µM in the assay with UACC-257 melanoma; 48.9 µM with MDA-MB-435; above 100 µM in the assay with SK-OV-3 ovarian; 85.7 µM in the assay on DU-145 prostate; 29.2 µM with NCI-H23 lung. Further, the TGI in the assay with SK-MEL-28 melanoma and with ACHN renal was above 100 µM each time.

On to `C/C=C(\C)C(=O)O[C@H]1C=CC(=O)O[C@H]1COC(=O)[C@H](C)O`, for which the TGI worked out at 7.41 µM in the assay on RXF 393 renal; 30.8 µM with UACC-257 melanoma; 22.4 µM with MDA-MB-435; 46.4 µM in the assay with SK-OV-3 ovarian; 22.4 µM in the assay with DU-145 prostate; 36.9 µM in the assay on NCI-H23 lung. Moreover, the TGI with SK-MEL-28 melanoma was found to be 11.5 µM; in the assay with ACHN renal it was 16.6 µM. Besides, the GI50 with UACC-257 melanoma is 14.7 µM; with MDA-MB-435 it was 5.74 µM; in the assay on SK-OV-3 ovarian it was 17.6 µM; in the assay on DU-145 prostate, 9.17 µM; in the assay with NCI-H23 lung, 15.3 µM; with SK-MEL-28 melanoma, 3.53 µM. Further, the GI50 in the assay with ACHN renal was 4.38 µM.

For the molecule `CC(C)C(=O)c1c(C(F)(F)F)n([O-])c2ccccc2[n+]1=O`, the GI50 in the assay with RXF 393 renal is 2.35 µM; in the assay on UACC-257 melanoma it was 2.74 µM; in the assay on MDA-MB-435, 1.07 µM; in the assay with SK-OV-3 ovarian, 2.66 µM; in the assay on DU-145 prostate, 1.12 µM; in the assay with NCI-H23 lung, 1.67 µM. For the same molecule, the GI50 is 9.06 µM in the assay with SK-MEL-28 melanoma and 2.3 µM in the assay with ACHN renal. Besides, the TGI with RXF 393 renal was 13 µM; with UACC-257 melanoma it was 7.8 µM; in the assay with MDA-MB-435, 3.45 µM; with SK-OV-3 ovarian, above 100 µM; in the assay with DU-145 prostate, 2.54 µM; in the assay with NCI-H23 lung it was 3.41 µM. In the assay on SK-MEL-28 melanoma, this molecule registered a TGI of 25.1 µM.

Regarding `Cc1[nH]nc2ncc(C(=O)N3CCC[C@H]3c3ccc(Cl)cc3)cc12`, the GI50 in the assay on RXF 393 renal is 39.5 µM; in the assay with UACC-257 melanoma, above 100 µM; in the assay on MDA-MB-435, 98.1 µM; with SK-OV-3 ovarian it was above 100 µM; in the assay on DU-145 prostate, above 100 µM; in the assay with NCI-H23 lung, above 100 µM. Further, the GI50 with SK-MEL-28 melanoma was above 100 µM; in the assay with ACHN renal, 36.3 µM. In addition, the total growth inhibition concentration (TGI) with RXF 393 renal, with UACC-257 melanoma, with MDA-MB-435, in the assay on SK-OV-3 ovarian, with DU-145 prostate and in the assay on NCI-H23 lung was above 100 µM in each case. For the same molecule, the TGI with SK-MEL-28 melanoma and in the assay on ACHN renal was above 100 µM in each case.

In the case of `Cc1sc2c(c1C)C(c1ccc(Cl)cc1)=N[C@@H](CC(=O)NCCCN1CCN(C)CC1)c1nnc(C)n1-2`, the GI50 was 2.08 µM in the assay with RXF 393 renal; 3.26 µM in the assay with UACC-257 melanoma; 0.621 µM with MDA-MB-435; 0.309 µM in the assay on SK-OV-3 ovarian; above 100 µM with DU-145 prostate; 5.67 µM in the assay on NCI-H23 lung. Also, the results for the GI50 with SK-MEL-28 melanoma and with ACHN renal were above 30 µM and 17.1 µM, respectively. Further, the TGI in the assay on RXF 393 renal is above 100 µM; in the assay on UACC-257 melanoma, above 100 µM; in the assay with MDA-MB-435, above 100 µM; in the assay on SK-OV-3 ovarian it was above 42.3 µM; in the assay on DU-145 prostate, above 100 µM; with NCI-H23 lung, above 100 µM. Further, the TGI with SK-MEL-28 melanoma and in the assay on ACHN renal was above 100 µM throughout.
